Reference: the NIST ThermoML archive (doi:10.1021/je500542j)
Where “and” joins values, the source holds several entries; their conditions need not be identical. Identical values can stand only once. ± gives the expanded uncertainty stated by the source.

Assay: wn = mass fraction of the nth substance listed
Conditions: 101 kPa, Liquid, Vibrating tube method

**Q.** For `O=C(O)c1ccccc1C(=O)O` [1,2-benzenedicarboxylic acid] + CN1CCCC1=O, which mass density (303.15 K, w1 = 0.158) is on record?
**A.** 1037.8 ± 1 kg/m3 and 1038 ± 1 kg/m3

**Q.** What about the mass density (313.15 K, w1 = 0.187) of the same compound?
**A.** 1042.8 ± 1.1 kg/m3

**Q.** What does the source list for `O=C(O)c1cccc(C(=O)O)c1` [1,3-benzenedicarboxylic acid] + CN1CCCC1=O?
**A.** mass density (303.15 K, w1 = 0.1624): 1036.1 ± 1 kg/m3; mass density (313.15 K, w1 = 0.1957): 1038.5 ± 7.6 kg/m3

**Q.** What does the source list for `O=C(O)c1ccc(C(=O)O)cc1` [1,4-benzenedicarboxylic acid] + CN1CCCC1=O?
**A.** mass density (303.15 K, w1 = 0.05896): 1029.5 ± 1 kg/m3; mass density (313.15 K, w1 = 0.08754): 1031.5 ± 1 kg/m3 and 1038.5 ± 1 kg/m3
